Experimental findings from patent publication US9233961B2, “Compounds and compositions for the treatment of parasitic diseases” (Novartis AG, priority 2013, dated 2016) are described below.

Molecules are shown by their SMILES. Like-named read-outs stand apart in the source and are kept apart here.

Test [1] relates to Trypanosoma cruzi amastigotes (Tulahuen strain) cultured in 3T3 fibroblast cells. Nature of the test: Assay for proliferation of kinetoplastid parasite Trypanosoma cruzi. The test is classed as cell-based. The following applies: 144 h, 6 day incubation. An excerpt:
Assay for Proliferation of Kinetoplastid Parasite Trypanosoma cruzi.
Compounds of the invention can be assayed to measure their capacity to inhibit proliferation of kinetoplastid parasite Trypanosoma cruzi. The screening procedure is for identifying compounds with inhibitor activity against Trypanosoma cruzi amastigotes cultured in 3T3 fibroblast cells. The assay is done using the mammalian stage (amastigotes) of T. cruzi that replicates in the intracellular space of host cells. The host cells are initially infected with the culture-derived trypomastigotes that rapidly invade and then divide as amastigotes. The protocol uses the Tulahuen strain of T. cruzi that has been engineered to express the E. coli beta-galactosidase gene (Lac-Z) (Antimicr. Agents Chemoth. 40:2592, 1996). This allows for a colorimetric readout by using the substrate CPRG and an absorbance plate reader.
3T3 fibroblast cells are re-suspended in RPMI-1640 medium without phenol red medium supplemented with 10% FBS (heat inactivated), 100 μg/ml penicillin, and 100 μg/ml streptomycin. Forty μL of suspension (1,000 cells) is dispensed into 384-well plates and incubated overnight at 37° C. temperature and in atmosphere containing 5% CO2. The following day, 100 nL of compounds of the invention in DMSO are added to plate wells containing 3T3 cells. At the same time control compounds (benznidazole and nifurtimox) and DMSO are added to plates to serve as the positive and negative controls, respectively. After that, 10 μL of media containing 10,000 T. cruzi trypomastigotes are added to each plate well and plates are placed back into incubators. After 6 day incubation, 10 μL of reagent solution (0.6 mM CPRG, 0.6% NP-40 in PBS) is added to plates and incubated at room temperature for 2 hours. Absorbance is then measured on SpectraMax Gemini […] to determine relative number of T. cruzi cells present in each plate well. The percentage inhibition of 50%, EC50, is calculated for each compound. […] Typically, the EC50 is 10 μM or less.

Test [2] concerns Trypanosoma brucei Lister 427 strain bloodstream form. Put plainly: Assay for proliferation of kinetoplastid parasite Trypanosoma brucei. Type of test: cell-based. In a few lines: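 Bloodstream-form T. brucei Lister 427 in HMI-9 medium was exposed to compound (DMSO vehicle) for 48 hours at 37° C, 5% CO2. Parasite growth was read as ATP by CellTiter-Glo luminescence, with EC50 calculated from percent inhibition.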

Test [3] relates to Leishmania donovani axenic amastigote parasites. Nature of the test: Leishmania donovani axenic amastigote proliferation assay. The test is classed as cell-based. The following applies: read-out: L. donovani amastigotes EC50. In a few lines: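 EC50 values come from CellTiter-Glo luminescence after 2-day compound exposure of axenic amastigotes (9600 per well) at 37 °C, 5% CO2. Medium: RPMI 1640, 20% heat-inactivated FBS, folic acid, adenosine, D-glucose, 25 mM MES, adjusted to pH 5.5.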

The test system of test [4] is L. donovani HU3 strain in mouse peritoneal macrophages. Nature of the test: Assay for proliferation of Leishmania parasites in mouse peritoneal macrophages. The test is classed as cell-based, Leishmania donovani. The following applies: Leishmania donovani, Peritoneal macrophage, read-out: L. donavani Macrophage EC50. In a few lines: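 EC50 derives from counting SYBR Green-stained parasite nuclei by high-content imaging after 5 days' compound exposure. Host cells were uninfected BALB/c peritoneal macrophages, infected for 24 h before dosing with spleen-derived L. donovani HU3 parasites from mice infected 9–11 weeks.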

Where [5] appears, read: Tulahuen amastigotes in 3T3 fibroblast cells, read-out: T cruzi EC50.
Where [6] appears, read: Lister 427 bloodstream form, 48 hours, read-out: T. brucei EC50.
[7] abbreviates: T. brucei Lister 427, 48 hours, Cell Titer Glo, read-out: EC50.

Turning to `NC(=O)c1ccc(-c2cnc3nc(-c4cc(NC(=O)c5ccco5)ccc4Cl)[nH]c3c2)cc1` [Compound 19, N-{3-[6-(4-carbamoylphenyl)-1H-imidazo[4,5-b]pyridin-2-yl]-4-chlorophenyl}furan-2-carboxamide], the 50% effective concentration (EC50) in test [1] (setting [5]) is above 20000 nM; in test [2] (setting [6]), 5.8 nM; in test [2] (setting [7]), 6 nM; in test [3] (axenic amastigotes in vitro), 165 nM; in test [4] it was above 50000 nM.
Consider `COc1ccc(-c2cnc3nc(-c4cc(NC(=O)c5ccco5)ccc4Cl)[nH]c3c2)cn1` [Compound 29, N-{4-chloro-3-[6-(6-methoxypyridin-3-yl)-1H-imidazo [4,5-b]pyridin-2-yl]phenyl}furan-2-carboxamide], for which the EC50 in test [1] (setting [5]) was 71 nM; in test [2] (setting [6]), 23.5 nM; in test [2] (setting [7]) it was 24 nM; in test [3] (axenic amastigotes in vitro), 234 nM; in test [4], 2290 nM.
In the case of `O=C(Nc1ccc(Cl)c(-c2nc3ncc(-c4ccc(OCc5ccccc5)cc4)cc3[nH]2)c1)c1ccco1` [Compound 47], the EC50 in test [1] (setting [5]) was 104 nM; in test [2] (setting [6]) it was 40 nM; in test [3] (axenic amastigotes in vitro), 460 nM; in test [4], above 7200 nM.
On to `O=C(Nc1ccc(Cl)c(-c2nc3ncc(-c4cccnc4)cc3[nH]2)c1)c1ccco1` [Compound 50], for which the EC50 in test [1] (setting [5]) was found to be 53 nM; in test [2] (setting [6]), 2.62 nM; in test [3] (axenic amastigotes in vitro), 134 nM; in test [4] it was 1640 nM.
In the same order, the values of `COCCOc1ccc(-c2cnc3nc(-c4cc(NC(=O)c5ccco5)ccc4Cl)[nH]c3c2)c(F)n1` [Compound 52] are 68 nM, 36 nM, 188 nM and above 14500 nM.
Consider `COC(=O)Nc1ccc(-c2cnc3nc(-c4cc(NC(=O)c5ccco5)ccc4Cl)[nH]c3c2)cc1` [Compound 58, methyl N-(4-{2-[2-chloro-5-(furan-2-amido)phenyl]-1H-imidazo[4,5-b]pyridin-6-yl}phenyl)carbamate], for which the EC50 in test [1] (setting [5]) was 19.3 nM; in test [2] (setting [6]), 5.1 nM; in test [2] (setting [7]), 5 nM; in test [3] (axenic amastigotes in vitro), 51 nM; in test [4], 284 nM.
With `CC(C)(C)OC(=O)N1CC=C(c2cnc3nc(-c4cc(NC(=O)c5ccco5)ccc4Cl)[nH]c3c2)CC1` [Compound 63], the EC50 came out at 108 nM in test [1] (setting [5]), 21.7 nM in test [2] (setting [6]), 560 nM in test [3] (axenic amastigotes in vitro) and 1600 nM in test [4].
In the same order, the values of `O=C(Nc1ccc(Cl)c(-c2nc3ncc(C4=CCNCC4)cc3[nH]2)c1)c1ccco1` [Compound 70] are 490 nM, 174 nM, 6000 nM and 20800 nM.
With `Cc1cnc2nc(-c3cc(NC(=O)c4ccccn4)ccc3Cl)[nH]c2c1` [Compound 83], the EC50 in test [1] (setting [5]) came to 1300 nM; in test [2] (setting [6]), 930 nM; in test [3] (axenic amastigotes in vitro) it was 7000 nM; in test [4] it was 23300 nM.
On the same counts, the results for `Cc1cnc2nc(-c3cc(NC(=O)c4ccc(N5CCOCC5)cn4)ccc3Cl)[nH]c2c1` [Compound 84] are 2300 nM, 2130 nM, 6700 nM and above 50000 nM.
In the same order, the values of `Cc1cnc2nc(-c3cc(NC(=O)Cc4cccc(Cl)c4)ccc3Cl)[nH]c2c1` [Compound 85] are above 11500 nM, 9300 nM, above 25000 nM and 21300 nM.
For `Cc1cnc2nc(-c3cc(NC(=O)c4ccc(Cl)o4)ccc3Cl)[nH]c2c1` [Compound 86], the EC50 stood at 69 nM in test [1] (setting [5]), 183 nM in test [2] (setting [6]), 840 nM in test [3] (axenic amastigotes in vitro) and 3090 nM in test [4].
On the same counts, the results for `Cc1cnc2nc(-c3cc(NC(=O)c4cccc(Cl)c4)ccc3Cl)[nH]c2c1` [Compound 89] are 175 nM, 260 nM, 3700 nM and 9200 nM.
On the same counts, the results for `Cc1cnc2nc(-c3cc(NC(=O)c4cc(Cl)ccc4Cl)ccc3Cl)[nH]c2c1` [Compound 98] are 1180 nM, 2910 nM, 16700 nM and 23500 nM.
For the molecule `Cc1cnc2nc(-c3cc(NC(=O)c4cccc(N5CCCCC5)c4)ccc3Cl)[nH]c2c1` [Compound 99], the 50% effective concentration (EC50) in test [1] (setting [5]) is 5500 nM; in test [2] (setting [6]) it was 6300 nM; in test [3] (axenic amastigotes in vitro), above 25000 nM; in test [4] it was above 50000 nM.
In the same order, the values of `Cc1cnc2nc(-c3cc(NC(=O)c4ccc[nH]4)ccc3Cl)[nH]c2c1` [Compound 100] are 2170 nM, 1420 nM, 6300 nM and 6400 nM.
On the same counts, the results for `Cc1cnc2nc(-c3cc(NC(=O)c4ccc(C)[nH]4)ccc3Cl)[nH]c2c1` [Compound 124] are above 14300 nM, above 25000 nM, above 25000 nM and 13800 nM.
On the same counts, the results for `Cc1cnc2nc(-c3cc(NC(=O)Cc4ccc(F)cc4)ccc3Cl)[nH]c2c1` [Compound 125] are 9600 nM, 10000 nM, above 25000 nM and 8600 nM.
Regarding `Cc1cnc2nc(-c3cc(NC(=O)c4ccc(C)o4)ccc3Cl)[nH]c2c1` [Compound 126], the half-maximal effective concentration (EC50) was 148 nM in test [1] (setting [5]), 303 nM in test [2] (setting [6]), 1600 nM in test [3] (axenic amastigotes in vitro) and 1630 nM in test [4].
Consider `Cc1cnc2nc(-c3cc(NC(=O)c4cnc[nH]4)ccc3Cl)[nH]c2c1` [Compound 128], for which the EC50 in test [1] (setting [5]) was above 20000 nM; in test [2] (setting [6]), above 25000 nM; in test [3] (axenic amastigotes in vitro), above 25000 nM; in test [4], above 50000 nM.
As to `CN(C(=O)OC(C)(C)C)c1ccc(-c2cnc3nc(-c4cc(NC(=O)N5CCCC5)ccc4Cl)[nH]c3c2)cc1` [Compound 332, tert-butyl N-[4-(2-{2-chloro-5-[(pyrrolidin-1-yl)carbonylamino]phenyl}-1H-imidazo[4,5-b]pyridin-6-yl)phenyl]-N-methylcarbamate], the concentration for a half-maximal effect (EC50) in test [1] (TULAHUEN, T. cruzi in 3T3 fibroblast cells, CPRG absorbance, read-out: EC50) is 6 nM.
`Cc1cnc2nc(-c3cc(Nc4ccc(Cl)cc4)ccc3Cl)[nH]c2c1` [Example 256, 4-chloro-N-(4-chlorophenyl)-3-{6-methyl-1H-imidazo[4,5-b]pyridin-2-yl}aniline]: the results for the half-maximal effective concentration (EC50) in test [2] (setting [6]), in test [3] (axenic amastigotes in vitro) and in test [4] were above 18100 nM, above 25000 nM and above 50000 nM, respectively.
Regarding `Cc1cnc2nc(-c3cc(NCc4ccco4)ccc3Cl)[nH]c2c1` [Example 266, 4-chloro-N-(furan-2-ylmethyl)-3-{6-methyl-1H-imidazo[4,5-b]pyridin-2-yl}aniline], the half-maximal effective concentration (EC50) is above 25000 nM in test [2] (48 h, read-out: T. brucei EC50); above 25000 nM in test [3]; above 40500 nM in test [4].
As for `N#Cc1cnc2nc(-c3cc(NC(=O)c4ccco4)ccc3Cl)[nH]c2c1` [Example 286, N-(4-chloro-3-{6-cyano-1H-imidazo[4,5-b]pyridin-2-yl}phenyl)furan-2-carboxamide], the results for the half-maximal effective concentration (EC50) in test [2] (setting [6]), in test [3] (axenic amastigotes in vitro) and in test [4] were 164 nM, 610 nM and 7100 nM, respectively.
In the same order, the values of `CNc1ccc(-c2cnc3nc(-c4cc(NC(=O)c5cc(C)cs5)ccc4Cl)[nH]c3c2)cc1` [Example 345, N-(4-chloro-3-{6-[4-(methylamino)phenyl]-1H-imidazo[4,5-b]pyridin-2-yl}phenyl)-4-methylthiophene-2-carboxamide] are 277 nM, 1970 nM and 1350 nM.
In the same order, the values of `NCc1cnc2nc(-c3cc(NC(=O)c4ccco4)ccc3Cl)[nH]c2c1` [Example 352, N-{3-[6-(aminomethyl)-1H-imidazo[4,5-b]pyridin-2-yl]-4-chlorophenyl}furan-2-carboxamide] are 450 nM, 253 nM and 49500 nM.
